ChEMBL document CHEMBL1201862, “PubChem BioAssay data set” (2004)
Activity calls are given as the source filed them.

Experiments:
Cytochrome P450 3A4 = Cytochrome P450 3A4 (Homo sapiens, UniProt P08684);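 note: CYP3A4 tested as one member of a cytochrome P450 panel screen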
Cytochrome P450 2C9 = Cytochrome P450 2C9 (Homo sapiens, UniProt P11712)
[1] = target: T1, Heat shock factor protein 1 (Mus musculus, UniProt P38532); assay: inhibition of MG132-induced HSE-luciferase signal, confirmation, cell-based, NIH3T3, luminescence, dose retest (AID 2382); assay type: functional;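 note: NIH3T3 fibroblasts with HSF1-driven luciferase reporter stressed by proteasome inhibitor MG132; luminescence from HSF1-driven luciferase expression after 8 hours of MG132 stress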
T1 sequence (P38532 whole entry): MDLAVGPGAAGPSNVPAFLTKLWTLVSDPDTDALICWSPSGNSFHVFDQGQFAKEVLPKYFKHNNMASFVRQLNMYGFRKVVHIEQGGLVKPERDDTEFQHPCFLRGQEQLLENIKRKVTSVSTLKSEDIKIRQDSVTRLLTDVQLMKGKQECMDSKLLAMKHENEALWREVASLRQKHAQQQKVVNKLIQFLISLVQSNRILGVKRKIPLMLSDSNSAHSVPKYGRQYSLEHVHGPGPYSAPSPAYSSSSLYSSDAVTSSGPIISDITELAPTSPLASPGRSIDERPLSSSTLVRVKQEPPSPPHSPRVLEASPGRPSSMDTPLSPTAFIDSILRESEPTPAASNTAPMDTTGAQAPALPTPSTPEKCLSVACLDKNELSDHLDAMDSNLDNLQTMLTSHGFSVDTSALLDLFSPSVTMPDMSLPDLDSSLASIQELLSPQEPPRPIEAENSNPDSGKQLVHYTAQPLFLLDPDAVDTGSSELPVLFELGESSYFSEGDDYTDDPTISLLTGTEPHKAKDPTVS

[2] = target: T2, Rac GTPase-activating protein 1 (Homo sapiens, UniProt Q9H0H5); assay: MgcRacGAP GTPase-activating activity inhibitors, confirmation, biochemical, ADP Hunter fluorescence, primary and confirmatory (AID 624330); assay type: functional
T2 sequence (Q9H0H5 whole entry): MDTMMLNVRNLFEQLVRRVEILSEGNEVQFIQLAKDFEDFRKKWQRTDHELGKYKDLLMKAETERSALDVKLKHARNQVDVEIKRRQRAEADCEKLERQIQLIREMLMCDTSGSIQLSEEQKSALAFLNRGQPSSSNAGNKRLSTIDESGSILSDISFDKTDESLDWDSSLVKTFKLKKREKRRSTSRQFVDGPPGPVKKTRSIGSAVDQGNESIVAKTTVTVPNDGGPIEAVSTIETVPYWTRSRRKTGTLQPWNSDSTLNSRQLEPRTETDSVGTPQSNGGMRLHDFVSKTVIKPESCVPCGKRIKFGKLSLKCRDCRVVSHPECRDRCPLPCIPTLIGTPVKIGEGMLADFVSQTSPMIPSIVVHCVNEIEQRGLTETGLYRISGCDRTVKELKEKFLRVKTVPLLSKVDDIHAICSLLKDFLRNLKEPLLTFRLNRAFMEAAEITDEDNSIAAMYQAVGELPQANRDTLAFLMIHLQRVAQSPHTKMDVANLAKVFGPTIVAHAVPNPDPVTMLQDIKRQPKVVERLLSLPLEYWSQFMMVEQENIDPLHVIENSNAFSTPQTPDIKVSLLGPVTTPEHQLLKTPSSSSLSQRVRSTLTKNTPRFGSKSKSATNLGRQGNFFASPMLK

[3] = target: T1, Heat shock factor protein 1; assay: HSF1 potentiators in luciferase reporter cells, confirmation, cell-based, NIH3T3, luminescence, dose retest (AID 435004); assay type: functional;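 note: stress induced by proteasome inhibitor MG132 added 30 min after compound; luciferase reporter driven by HSF1 response element in NIH3T3 cells; actives raise luminescence as potentiators of the MG132 stress response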
[4] = target: T3, Corticotropin-releasing factor receptor 2/Corticotropin-releasing factor-binding protein (Homo sapiens, UniProt P24387+Q13324); assay: Dose Response confirmation of uHTS hits for small molecule antagonists of the CRF-binding protein and CRF-R2 receptor complex.; assay type: functional; details: read-out: IC50_Mean
T3 sequence (Q13324 whole entry): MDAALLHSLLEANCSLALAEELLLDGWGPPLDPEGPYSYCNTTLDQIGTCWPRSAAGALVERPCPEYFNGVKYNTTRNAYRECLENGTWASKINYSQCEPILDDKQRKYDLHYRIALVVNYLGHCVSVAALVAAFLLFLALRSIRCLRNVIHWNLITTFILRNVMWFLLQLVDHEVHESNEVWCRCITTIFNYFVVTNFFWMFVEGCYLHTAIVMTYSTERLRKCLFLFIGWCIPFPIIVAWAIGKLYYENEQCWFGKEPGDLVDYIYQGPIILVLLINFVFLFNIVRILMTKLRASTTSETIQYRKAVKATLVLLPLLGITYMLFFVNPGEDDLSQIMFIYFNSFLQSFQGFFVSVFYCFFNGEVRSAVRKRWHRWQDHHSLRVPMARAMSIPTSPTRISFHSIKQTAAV
T3 sequence (P24387 whole entry): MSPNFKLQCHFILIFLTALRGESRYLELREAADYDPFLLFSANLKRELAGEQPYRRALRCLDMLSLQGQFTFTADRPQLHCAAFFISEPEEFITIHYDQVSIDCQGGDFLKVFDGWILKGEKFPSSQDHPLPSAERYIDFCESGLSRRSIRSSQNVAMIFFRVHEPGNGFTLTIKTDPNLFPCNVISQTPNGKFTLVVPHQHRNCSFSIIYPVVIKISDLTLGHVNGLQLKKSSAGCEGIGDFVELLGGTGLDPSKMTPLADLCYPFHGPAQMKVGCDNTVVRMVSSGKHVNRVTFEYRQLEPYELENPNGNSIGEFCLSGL

[5] = target: T3, Corticotropin-releasing factor receptor 2/Corticotropin-releasing factor-binding protein; assay: activators of CRF receptor 2 with binding protein – uHTS hits, confirmation (AID 602473); assay type: functional; details: read-out: EC50_Mean
Cytochrome P450 2C19 = Cytochrome P450 2C19 (Homo sapiens, UniProt P33261); assay: Cytochrome panel assay with activity outcomes. Panel member name: p450-cyp2c19 Compounds with AC50 equal or less than 10 uM are considered active; assay type: functional; details: read-out: AC50
[6] = Luminescence Cell-Based Dose Confirmation HTS to Identify Activators of 5'UTR Stem-Loop Driven Alpha-Synuclein mRNA Translation in H4 Neuroglioblastoma Cells. [Related pubchem assays: 1829 (Project Summary), 1814 (Primary HTS)]; assay type: functional
[7] = Luminescence Cell-Based Dose Response HTS to Identify Activators of Luciferase Translation or Activity in H4 […] Cells. [Related pubchem assays: 1829 (Project Summary), 1814 (Primary HTS)]; assay type: functional
H4 = assay: Luminescence Cell-Based Dose Response HTS to Identify Activators of 5'UTR Stem-Loop Driven Prion Protein mRNA Translation in H4 Neuroglioblastoma Cells. [Related pubchem assays: 1829 (Project Summary), 1814 (Primary HTS)]; assay type: functional; details: Homo sapiens
Cytochrome P450 1A2 = target: T4, Cytochrome P450 1A2 (Homo sapiens, UniProt P05177);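 note: PubChem cytochrome P450 panel assay, CYP1A2 panel member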
T4 sequence (P05177 whole entry): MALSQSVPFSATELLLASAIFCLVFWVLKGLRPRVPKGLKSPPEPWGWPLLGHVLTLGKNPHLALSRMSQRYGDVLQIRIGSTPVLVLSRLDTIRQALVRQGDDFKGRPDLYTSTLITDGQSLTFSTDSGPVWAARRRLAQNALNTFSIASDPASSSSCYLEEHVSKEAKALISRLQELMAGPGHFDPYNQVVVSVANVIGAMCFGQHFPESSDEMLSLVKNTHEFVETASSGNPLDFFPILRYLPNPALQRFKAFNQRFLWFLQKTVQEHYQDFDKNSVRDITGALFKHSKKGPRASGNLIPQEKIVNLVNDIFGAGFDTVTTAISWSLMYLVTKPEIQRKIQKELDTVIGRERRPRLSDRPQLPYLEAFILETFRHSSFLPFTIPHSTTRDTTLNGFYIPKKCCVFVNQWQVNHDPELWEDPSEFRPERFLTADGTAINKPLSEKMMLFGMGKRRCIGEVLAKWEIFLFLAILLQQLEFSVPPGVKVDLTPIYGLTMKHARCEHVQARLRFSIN

Cytochrome P450 2C9, sequence (P11712 whole entry): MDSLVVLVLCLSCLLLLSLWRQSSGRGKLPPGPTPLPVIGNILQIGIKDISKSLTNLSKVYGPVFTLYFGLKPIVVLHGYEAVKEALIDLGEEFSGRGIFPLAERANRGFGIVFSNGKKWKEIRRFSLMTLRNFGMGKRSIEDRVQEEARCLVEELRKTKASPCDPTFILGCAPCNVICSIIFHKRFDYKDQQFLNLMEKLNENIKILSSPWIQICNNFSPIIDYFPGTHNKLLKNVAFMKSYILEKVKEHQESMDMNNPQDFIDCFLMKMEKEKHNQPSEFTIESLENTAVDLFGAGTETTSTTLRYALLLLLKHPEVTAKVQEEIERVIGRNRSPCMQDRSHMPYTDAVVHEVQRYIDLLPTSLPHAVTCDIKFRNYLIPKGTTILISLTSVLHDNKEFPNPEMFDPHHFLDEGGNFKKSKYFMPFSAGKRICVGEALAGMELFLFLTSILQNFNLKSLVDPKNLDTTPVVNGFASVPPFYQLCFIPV
Cytochrome P450 3A4, sequence (P08684 whole entry): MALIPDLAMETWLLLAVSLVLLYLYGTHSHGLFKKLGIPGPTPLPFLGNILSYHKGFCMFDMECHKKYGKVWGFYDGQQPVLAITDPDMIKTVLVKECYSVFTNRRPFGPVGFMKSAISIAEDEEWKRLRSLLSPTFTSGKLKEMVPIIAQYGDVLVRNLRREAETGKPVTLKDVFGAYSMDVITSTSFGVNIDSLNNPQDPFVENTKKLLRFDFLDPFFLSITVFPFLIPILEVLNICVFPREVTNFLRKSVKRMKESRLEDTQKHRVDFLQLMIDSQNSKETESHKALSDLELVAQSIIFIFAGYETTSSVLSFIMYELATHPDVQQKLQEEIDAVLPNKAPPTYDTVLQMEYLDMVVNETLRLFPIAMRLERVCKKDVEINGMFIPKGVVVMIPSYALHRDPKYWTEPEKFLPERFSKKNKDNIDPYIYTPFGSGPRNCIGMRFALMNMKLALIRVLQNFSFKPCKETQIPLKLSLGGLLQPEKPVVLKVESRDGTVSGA
Cytochrome P450 2C19, sequence (P33261 whole entry): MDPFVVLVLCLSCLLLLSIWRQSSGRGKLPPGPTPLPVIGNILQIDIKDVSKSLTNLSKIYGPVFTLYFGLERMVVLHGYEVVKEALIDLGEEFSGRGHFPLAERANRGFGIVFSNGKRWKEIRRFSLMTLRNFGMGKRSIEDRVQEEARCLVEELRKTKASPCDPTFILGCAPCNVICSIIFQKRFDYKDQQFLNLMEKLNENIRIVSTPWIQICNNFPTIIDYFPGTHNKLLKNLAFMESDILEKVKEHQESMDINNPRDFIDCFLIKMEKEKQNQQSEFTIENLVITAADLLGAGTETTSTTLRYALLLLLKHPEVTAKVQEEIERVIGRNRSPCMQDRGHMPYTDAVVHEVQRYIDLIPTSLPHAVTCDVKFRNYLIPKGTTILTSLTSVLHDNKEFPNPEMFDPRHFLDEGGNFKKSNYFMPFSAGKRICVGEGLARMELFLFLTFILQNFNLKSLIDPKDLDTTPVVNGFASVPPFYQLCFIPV

## COc1ccc(CCn2c3c(c(=O)[nH]c2=O)C(NC(=O)c2cccs2)(C(F)(F)F)C(=O)N3)cc1OC (stereo not drawn)
Cytochrome P450 3A4
  AC50: 14.1 µM (inconclusive)
Cytochrome P450 2C9
  AC50: 8.91 µM (inconclusive)

## CN(C)c1ccc(C2Nc3ccccc3C(=O)N2CCCN2CCOCC2)cc1 (stereo not drawn)
[1]
  EC50: 2.02 µM (active)

## COC(=O)c1ccc(N2CCN(C(C)=O)CC2)c(NC(=O)COc2ccccc2C)c1
[1]
  EC50: > 195 µM (not active)

## Fc1ccc(CNCc2ccccc2Cl)cc1
[1]
  EC50: > 195 µM (not active)
[2]
  IC50: 213 µM (active)

## CC(C)(C)CC(C)(C)c1cc(O)c(O)c(CN2CCCCC2)c1
Cytochrome P450 3A4
  AC50: 3.98 µM (inconclusive)
Cytochrome P450 2C9
  AC50: 7.94 µM (inconclusive)

## CCOC(=O)CNC(=O)CSc1nnc(C)c(O)n1
[1]
  EC50: > 195 µM (not active)

## C=CCSc1nc2ccccc2c(=O)n1Cc1ccco1
Cytochrome P450 2C9
  AC50: 3.98 µM (inconclusive)

## CCN(C(=O)Cn1c([N+](=O)[O-])cnc1C)c1ccccc1
[1]
  EC50: > 195 µM (not active)

## CCOc1ccc(CN(CCCl)CCCl)cc1C(=O)OC
[3]
  EC50: 12.6 µM (active)

## CCOc1ccc(-n2cc(C(=O)NCc3ccco3)c3cc(OC)c(OC)cc3c2=O)cc1
Cytochrome P450 3A4
  AC50: 22.4 µM (inconclusive)
Cytochrome P450 2C9
  AC50: 4.47 µM (inconclusive)

## CC(C)c1ccccc1-n1c(S)nnc1-c1cccnc1
[1]
  EC50: > 195 µM (not active)

## COc1ccc(N2CCN(CCCNC(=O)C(=O)c3c(C)[nH]c4ccccc34)CC2)cc1
[4]
  IC50: > 47.1 µM (inactive)
[5]
  EC50: > 53 µM (inactive)

## Cc1noc(C)c1COC(=O)c1cccc(S(=O)(=O)N2c3ccccc3CC2C)c1 (stereo not drawn)
[4]
  IC50: > 47.1 µM (inactive)
[5]
  EC50: > 53 µM (inactive)

## COc1ccc(N2CCN(CC(O)COCCOc3ccc(Br)cc3)CC2)cc1 (stereo not drawn)
[1]
  EC50: > 195 µM (not active)

## O=C(Nc1ccccc1C(=O)N1CCOCC1)c1ccncc1
[4]
  IC50: > 47.1 µM (inactive)
[5]
  EC50: > 53 µM (inactive)

## C=CCN=C(S)Nc1ccc2nc(C)c(C)nc2c1
Cytochrome P450 2C9
  AC50: 12.6 µM (inconclusive)

## COC(=O)C1=CN(Cc2ccc(OC)c(OC)c2)C=C(C(=O)OC)C1c1ccccc1F
[1]
  EC50: > 195 µM (not active)

## Cc1nc2cnc(N3CCOCC3)nc2n(Cc2ccc(F)cc2)c1=O
Cytochrome P450 2C9
  AC50: 31.6 µM (inconclusive)

## CCCCN(CC)S(=O)(=O)N1CCC(C(=O)NCCCN2CCOCC2)CC1
Cytochrome P450 2C19
  AC50: 1 µM (inconclusive)
Cytochrome P450 2C9
  AC50: 25.1 µM (inconclusive)

## COc1ccc(NC(=O)C2c3cc(OC)c(OC)cc3C(=O)N(C)C2c2cccnc2)cc1OC (stereo not drawn)
Cytochrome P450 2C9
  AC50: 17.8 µM (inconclusive)

## CC(C)N1C(=O)CN(C2CCCCCC2)C(=O)C1c1ccccc1F (stereo not drawn)
[6]
  EC50: 10.8 µM (active)
[7]
  EC50: 20.9 µM (active)
H4
  EC50: 21 µM (active)
[1]
  EC50: 77.6 µM (active)

## O=C(CN1CCCCC1)Nc1cccc2c1OCO2
[1]
  EC50: > 195 µM (not active)

## Cc1ccc(F)c(NC(=O)c2ccc(Cn3cc(Cl)cn3)cc2)c1
[1]
  EC50: > 195 µM (not active)

## Cc1cc(/C=C(/C#N)C(=O)O)c(C)n1-c1cccc2ccccc12
[4]
  IC50: 6.86 µM (active)
[5]
  EC50: > 53 µM (inactive)

## Cc1cccc(C)c1NC(=O)c1sccc1SCc1cccc(C(F)(F)F)c1
[4]
  IC50: > 47.1 µM (inactive)
[5]
  EC50: > 53 µM (inactive)

## Cc1ccc(OCC(=O)NC(=S)Nc2ccccn2)c(Br)c1
[1]
  EC50: < 0.16 µM (active)

## CC1C(=O)C(C)C(c2ccco2)NC1c1ccco1 (stereo not drawn)
[1]
  EC50: > 195 µM (not active)

## O=C(CSc1ccc(-c2ccncc2)nn1)N1CCN(c2ccccc2)CC1
[4]
  IC50: > 47.1 µM (inactive)
[5]
  EC50: > 53 µM (inactive)

## COc1ccc(-c2cn(-c3ccccc3)nc2CO)cc1
[1]
  EC50: > 195 µM (not active)

## O=C(OCc1ccc2c(c1)OCO2)c1ccc(S(=O)(=O)N2CCCC2)cc1
[4]
  IC50: > 47.1 µM (inactive)
[5]
  EC50: > 53 µM (inactive)

## CCC[C@@H]1C[C@@]1(CCC)C(NC(=O)OCc1ccccc1)c1ccc(-c2ccccc2)cc1 (stereo partly drawn)
Cytochrome P450 3A4
  AC50: 3.98 µM (inconclusive)
Cytochrome P450 2C9
  AC50: 3.98 µM (inconclusive)

## COC(=O)[C@@]1(Cc2ccc(OC)cc2)[C@H]2c3cc(C(=O)N(C)C)n(CCSCCO)c3C[C@H]2CN1C(=O)c1ccccc1
Cytochrome P450 2C19
  AC50: 20 µM (inconclusive)
Cytochrome P450 2C9
  AC50: 12.6 µM (inconclusive)

## COC(=O)c1ccc(NC(=O)c2ccccc2)o1
Cytochrome P450 1A2
  AC50: 2.82 µM (inconclusive)
Cytochrome P450 2C9
  AC50: 17.8 µM (inconclusive)

## COc1ccc(Nc2cc(C(=O)NCCCN3CCN(C)CC3)c3ccccc3n2)cc1
Cytochrome P450 1A2
  AC50: 10 µM (inconclusive)
Cytochrome P450 2C9
  AC50: 14.1 µM (inconclusive)

## COc1ccc(N(CC(=O)NCCSc2ccccn2)S(=O)(=O)c2ccc(C)cc2)cc1OC
[4]
  IC50: > 47.1 µM (inactive)
[5]
  EC50: > 53 µM (inactive)

## COc1ccc(C(=O)NCCS(=O)(=O)N(C)C2CCCCC2)cc1
[4]
  IC50: > 47.1 µM (inactive)
[5]
  EC50: > 53 µM (inactive)

## CCOc1ccccc1NC(=O)C1=C(C)NC(=O)NC1c1cccc(OC)c1OC (stereo not drawn)
Cytochrome P450 2C9
  AC50: 25.1 µM (inconclusive)

## COCC(=O)N(C)[C@H]1C[C@H]2c3cc(N4CCN(C)CC4)ccc3CCN2C(=O)[C@H]1[C@H](C)O
[4]
  IC50: > 47.1 µM (inactive)
[5]
  EC50: > 53 µM (inactive)

## O=C(COc1ccccc1)NCc1ccco1
[4]
  IC50: > 47.1 µM (inactive)
[5]
  EC50: > 53 µM (inactive)

## COc1cccc(/N=C/C2=C(O)OC3(CCCCC3)OC2=O)c1
[3]
  EC50: > 260 µM (inconclusive)
